Where “and” joins values, the source holds several entries; their conditions need not be identical. Identical values can stand only once. Like-named read-outs stand apart in the source and are kept apart here.
Tests used:
[1] = tested on: E. coli KA797 cells carrying BlaC position 105 library; assay type: cell-based, Escherichia coli; conditions: for Fi AVG (average fitness): average of replicates
TEM-1 WT [2] = target: T1, TEM-1 WT (Escherichia coli, UniProt P62593); assay type: biochemical; design: 24 to 286 of TEM-1 (P62593); His tag with TEV cleavage site (N); made in house; host or cells: E. coli BL21 (DE3) pLysS
[3] = tested on: E. coli KA797 cells carrying pUK21 with CTX-M-14 Y105R; assay type: cell-based, Escherichia coli; conditions: in combination with 100 μg/ml carbenicillin
[4] = tested on: E. coli KA797 cells carrying pUK21 with TEM-1 Y105G; assay type: cell-based, Escherichia coli; conditions: in combination with 100 μg/ml carbenicillin
BlaC WT [5] = target: T2, BlaC WT (Mycobacterium tuberculosis, UniProt P9WKD3); assay type: biochemical
T2 construct: correspond to residue numbers 41-307 of BlaC (Uniprot entry P9WKD3-1); His tag with TEV cleavage site (N); made in house; host or cells: E. coli BL21 (DE3) pLysS
T2 sequence (P9WKD3 41-307): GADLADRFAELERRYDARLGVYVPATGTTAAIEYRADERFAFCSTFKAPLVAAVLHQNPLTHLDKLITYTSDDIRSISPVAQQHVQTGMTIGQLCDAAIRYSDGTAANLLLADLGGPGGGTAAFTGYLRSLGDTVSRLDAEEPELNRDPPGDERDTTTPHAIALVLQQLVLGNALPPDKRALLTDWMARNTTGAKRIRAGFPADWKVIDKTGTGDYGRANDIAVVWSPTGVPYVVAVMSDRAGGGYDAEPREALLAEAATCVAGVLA

TEM-1 Y105G [6] = target: T3, TEM-1 Y105G (Escherichia coli, UniProt P62593, Y103G); assay: In vitro inhibition of nitrocefin hydrolysis and simulation of inhibition curves, TEM-1 Y105G; assay type: biochemical
[7] = tested on: E. coli KA797 cells carrying pUK21 with NmcA (pelB/Sec); assay: microbe, parasite or virus in culture; assay type: cell-based; conditions: in combination with 25 μg/ml carbenicillin
[8] = tested on: E. coli KA797 cells carrying pUK21 with BlaC I105R; assay type: cell-based, Escherichia coli; conditions: in combination with 100 μg/ml carbenicillin
[9] = tested on: E. coli KA797 cells carrying pUK21 with BlaC I105G; assay type: cell-based, Escherichia coli; conditions: in combination with 100 μg/ml carbenicillin
[10] = tested on: E. coli KA797 cells carrying pUK21 with CTX-M-14 WT (Tat); assay: microbe, parasite or virus in culture; assay type: cell-based; conditions: in combination with 100 μg/ml carbenicillin
[11] = tested on: E. coli KA797 cells carrying pUK21 with CTX-M-14 Y105G; assay type: cell-based, Escherichia coli; conditions: in combination with 100 μg/ml carbenicillin
[12] = tested on: E. coli KA797 cells carrying pUK21 with KPC-2 (Tat); assay: microbe, parasite or virus in culture; assay type: cell-based; conditions: in combination with 100 μg/ml carbenicillin
CTX-M-14 WT = target: T4, CTX-M-14 WT (Escherichia coli, UniProt Q9L5C7); assay: biochemical
T4 construct: 29 to 291 of CTX-M-14 (Q9L5C7); His tag with TEV cleavage site (N); made in house; host or cells: E. coli BL21 (DE3) pLysS

CTX-M-14 Y105G [13] = target: T5, CTX-M-14 Y105G (Escherichia coli, UniProt Q9L5C7, Y108G); assay: biochemical
T5 construct: 29 to 291 of CTX-M-14 (Q9L5C7); His tag with TEV cleavage site (N); made in house; host or cells: E. coli BL21 (DE3) pLysS

[14] = tested on: E. coli KA797 cells carrying pUK21 with TEM-1 Y105R; assay type: cell-based, Escherichia coli; conditions: in combination with 100 μg/ml carbenicillin
[15] = tested on: E. coli KA797 cells carrying pUK21 with TEM-1 WT (Sec); assay: microbe, parasite or virus in culture; assay type: cell-based; conditions: in combination with 100 μg/ml carbenicillin
[16] = tested on: E. coli KA797 cells carrying pUK21 with BlaC WT (Tat); assay: microbe, parasite or virus in culture; assay type: cell-based; conditions: in combination with 100 μg/ml carbenicillin
CTX-M-14 Y105G [17] = target: T5, CTX-M-14 Y105G; assay type: biochemical
BlaC WT [18] = target: T2, BlaC WT; conditions: pH 6.4, cited from earlier work
TEM-1 Y105G [19] = target: T3, TEM-1 Y105G; assay: Steady-state kinetics of substrate hydrolysis, TEM-1 Y105G; assay type: biochemical; conditions: phosphate buffer pH 6.4, 25 °C
TEM-1 WT [20] = target: T1, TEM-1 WT; conditions: phosphate buffer pH 6.4, 25 °C
[21] = avibactam, simulation Eq 3/9, TEM-1 WT
[22] = avibactam, simulation Eq 3/9, CTX-M-14 WT
[23] = avibactam, simulation Eq 3/9, CTX-M-14 Y105G
[24] = nitrocefin parameter (Eq 7) in simulation of avibactam inhibition curves
[25] = nitrocefin parameter (Eq 7) in simulation of clavulanic acid inhibition curves
[26] = nitrocefin parameter (Eq 7) in simulation of avibactam inhibition curves, CTX-M-14 Y105G

NC(=O)[C@@H]1CC[C@@H]2CN1C(=O)N2OS(=O)(=O)O [avibactam]
Fi AVG (average fitness) ([1]; AA 105 Ala (BlaC I105A), relative to WT Ile): 0.716 | Significance of average fitness ([1]; AA 105 Arg (BlaC I105R)): + | Fi AVG (average fitness) ([1]; AA 105 Arg (BlaC I105R), relative to WT Ile): 2.021 | Fi AVG (average fitness) ([1]; AA 105 Asn (BlaC I105N), relative to WT Ile): -0.462 | Fi AVG (average fitness) ([1]; AA 105 Asp (BlaC I105D), relative to WT Ile): 0.306 | Fi AVG (average fitness) ([1]; AA 105 Cys (BlaC I105C), relative to WT Ile): 0.512 | Significance of average fitness ([1]; AA 105 Gln (BlaC I105Q)): + | Fi AVG (average fitness) ([1]; AA 105 Gln (BlaC I105Q), relative to WT Ile): 1.438 | Fi AVG (average fitness) ([1]; AA 105 Glu (BlaC I105E), relative to WT Ile): 0.205 | Significance of average fitness ([1]; AA 105 Gly (BlaC I105G)): + | Fi AVG (average fitness) ([1]; AA 105 Gly (BlaC I105G), relative to WT Ile): 2.428 | Fi AVG (average fitness) ([1]; AA 105 His (BlaC I105H), relative to WT Ile): 0.810 | Fi AVG (average fitness) ([1]; AA 105 Ile (BlaC WT, reference)): 0.000 | Significance of average fitness ([1]; AA 105 Leu (BlaC I105L)): + | Fi AVG (average fitness) ([1]; AA 105 Leu (BlaC I105L), relative to WT Ile): 1.665 | Significance of average fitness ([1]; AA 105 Lys (BlaC I105K)): + | Fi AVG (average fitness) ([1]; AA 105 Lys (BlaC I105K), relative to WT Ile): 0.933 | Fi AVG (average fitness) ([1]; AA 105 Met (BlaC I105M), relative to WT Ile): 0.542 | Significance of average fitness ([1]; AA 105 Phe (BlaC I105F)): + | Fi AVG (average fitness) ([1]; AA 105 Phe (BlaC I105F), relative to WT Ile): 2.659 | Significance of average fitness ([1]; AA 105 Pro (BlaC I105P)): - | Fi AVG (average fitness) ([1]; AA 105 Pro (BlaC I105P), relative to WT Ile): -1.222 | Significance of average fitness ([1]; AA 105 Ser (BlaC I105S)): + | Fi AVG (average fitness) ([1]; AA 105 Ser (BlaC I105S), relative to WT Ile): 1.393 | Significance of average fitness ([1]; AA 105 Thr (BlaC I105T)): + | Fi AVG (average fitness) ([1]; AA 105 Thr (BlaC I105T), relative to WT Ile): 1.333 | Significance of average fitness ([1]; AA 105 Trp (BlaC I105W)): + | Fi AVG (average fitness) ([1]; AA 105 Trp (BlaC I105W), relative to WT Ile): 2.468 | Significance of average fitness ([1]; AA 105 Tyr (BlaC I105Y)): + | Fi AVG (average fitness) ([1]; AA 105 Tyr (BlaC I105Y), relative to WT Ile): 3.416 | Fi AVG (average fitness) ([1]; AA 105 Val (BlaC I105V), relative to WT Ile): -0.187 | WT abs Fi 1 ([1]; absolute fitness of BlaC WT (Ile 105), replicate 1): -1.354 | WT abs Fi 2 ([1]; absolute fitness of BlaC WT (Ile 105), replicate 2): -1.584 | WT abs Fi 3 ([1]; absolute fitness of BlaC WT (Ile 105), replicate 3): -0.942 | k2 (TEM-1 WT [2]; [21]): 5.7 10^−2 s^−1 | k-2 (TEM-1 WT [2]; [21]): 0.2 10^−3 s^−1 | k1 (TEM-1 WT [2]; avibactam, simulation Eq 9, TEM-1 WT): 1e+06 M⁻¹ s⁻¹ | MIC of inhibitor [3]: 1 µg/mL | MIC of inhibitor [4]: 16 µg/mL | k2 (BlaC WT [5]): 6.5 and 6.5 10^−2 s^−1 | k-2 (BlaC WT [5]): 0.1 and 0.1 10^−3 s^−1 | k2 (TEM-1 Y105G [6]; avibactam, simulation Eq 3/9): 5 10^−2 s^−1 | k-2 (TEM-1 Y105G [6]; avibactam, simulation Eq 3/9): 0.75 10^−3 s^−1 | MIC of inhibitor [7]: 0.5 µg/mL | MIC of inhibitor [8]: 64 µg/mL | MIC of inhibitor [9]: 32 µg/mL | MIC of inhibitor [10]: 0.5 µg/mL | MIC of inhibitor [11]: 2 µg/mL | MIC of inhibitor [12]: 0.5 µg/mL | Ki (CTX-M-14 WT): 0.47 µM | k2 (CTX-M-14 WT; [22]): 6.6 10^−2 s^−1 | k-2 (CTX-M-14 WT; [22]): 0.3 10^−3 s^−1 | k1 (CTX-M-14 WT; avibactam, simulation Eq 9, CTX-M-14 WT): 1e+06 M⁻¹ s⁻¹ | Ki (CTX-M-14 Y105G [13]): 50 µM | k2 (CTX-M-14 Y105G [13]; [23]): 4.6 10^−2 s^−1 | k-2 (CTX-M-14 Y105G [13]; [23]): 0.25 10^−3 s^−1 | MIC of inhibitor [14]: 4 µg/mL | MIC of inhibitor [15]: 1 µg/mL | MIC of inhibitor [16]: 16 µg/mL

O=C(Cc1cccs1)N[C@@H]1C(=O)N2C(C(=O)O)=C(/C=C/c3ccc([N+](=O)[O-])cc3[N+](=O)[O-])CS[C@H]12 [nitrocefin]
kcat (CTX-M-14 Y105G [17]; phosphate buffer pH 6.4, 25 °C): 963 ± 117 s⁻¹ | Km (CTX-M-14 Y105G [17]; read-out: KM^app, phosphate buffer pH 6.4, 25 °C): 700 ± 172 µM | kcat (BlaC WT [18]): 86 ± 2 s⁻¹ | Km (BlaC WT [18]; read-out: KM^app): 131 ± 2 µM | ka (TEM-1 WT [2]): 4.5e+07 M⁻¹ s⁻¹ | kc (TEM-1 WT [2]): 830 s⁻¹ and 1040 s⁻¹ | ka (BlaC WT [5]): 1.05e+06 M⁻¹ s⁻¹ | kc (BlaC WT [5]): 82.5 s⁻¹ and 56 s⁻¹ | ka (TEM-1 Y105G [6]; [24]): 1e+07 M⁻¹ s⁻¹ | kc (TEM-1 Y105G [6]; [24]): 95 s⁻¹ | ka (TEM-1 Y105G [6]; [25]): 1e+07 M⁻¹ s⁻¹ | kc (TEM-1 Y105G [6]; [25]): 154 s⁻¹ | kcat (TEM-1 Y105G [19]): 453 ± 80 s⁻¹ | kcat (TEM-1 WT [20]): 933 ± 33 s⁻¹ | Kd (CTX-M-14 WT): 50 µM | kc (CTX-M-14 WT): 545 s⁻¹ | Kd (CTX-M-14 Y105G [13]): 760 µM | ka (CTX-M-14 Y105G [13]; [26]): 5e+07 M⁻¹ s⁻¹ | kc (CTX-M-14 Y105G [13]; [26]): 460 s⁻¹
